Experimental data reported in US11274332B2, “Methods of administering 3,4-diaminopyridine” (SERB SA, priority 2011, dated 2022).

Test: Food-effect crossover study, adverse events after single 20 mg amifampridine phosphate in healthy subjects (Examples 10, 11)
Type: in vivo
Description: This was a randomized, open-label, 2-treatment, 2-period crossover study with 44 completed subjects to assess the safety, tolerability, and the effect of food on the relative bioavailability of a single dose of amifampridine phosphate.
Safety was evaluated for all subjects who take at least one dose of 3,4-DAP. Safety was evaluated by recording the incidence of adverse events (AEs), physical examination, vital signs, concomitant medications, clinical laboratory assessments, and 12-lead electrocardiogram (ECG).
Analysis for the following safety parameters was carried out on the Safety Population: AEs which included all AEs, AEs by severity, drug-related AEs, deaths, SAEs, AEs leading to study discontinuation, and most frequent AEs, standard clinical laboratory tests, vital signs, ECG measurements, routine physical examinations, and prior and concomitant medications. The cut-off for frequency of AEs reported was determined based on the data. No formal statistical testing was performed for the safety analyses; only descriptive statistics were provided. Appropriate descriptive statistics for the safety data were determined using SAS Version 9.2.
AEs were coded according to the Medical Dictionary for Regulatory Activities (MedDRA; Version 13.0). […] The occurrence of AEs was assessed continuously from the time the subject signed the VID and consent. The reporting period for non-serious AEs was from the first dose to the final study visit. The investigator determined the severity of each event and the relationship of an AE to the IP and recorded it on the source documents and AE CRF. The nature, time of onset, duration, severity, and relationship to study drug was documented, including documentation of investigator assessment and review. All events were assessed to determine if the AE was serious.
The Investigator determined the severity of each event and the event was recorded on the source documents and AE CRF. A coding of “mild” meant there was no limitation of usual activities, “moderate” meant there was some limitation of usual activities, “severe” meant there was an inability to carry out usual activities.
The reporting period for AEs that met the criteria of an SAE began from the time of signing the VID and consent form through follow-up or early termination. […] Clinical Laboratory Assessments

## Nc1ccncc1N.O=P(O)(O)O [amifampridine phosphate, 3,4-diaminopyridine phosphate]
Male N=31
  Paraesthesia, drug-related AE: subjects: 6
  Possibly or probably related AEs, Mild: % of subjects: 58%
  Possibly or probably related AEs, Mild: events: 51
  Possibly or probably related AEs, Mild: subjects: 18
  Possibly or probably related AEs, Moderate: % of subjects: (0%) [0]
  Possibly or probably related AEs, Moderate: events: (0%) [0]
  Possibly or probably related AEs, Moderate: subjects: 0
  Possibly or probably related AEs, Severe: % of subjects: (0%) [0]
  Possibly or probably related AEs, Severe: events: (0%) [0]
  Possibly or probably related AEs, Severe: subjects: 0
  Possibly or probably related AEs, Total: % of subjects: 58%
  Possibly or probably related AEs, Total: events: 51
  Possibly or probably related AEs, Total: subjects: 18
  Serious adverse events: % of subjects: (0%) [0]
  Serious adverse events: events: (0%) [0]
  Serious adverse events: subjects: 0
  Skin and Subcutaneous Tissue Disorders Total, drug-related AE: % of subjects: 3%
  Skin and Subcutaneous Tissue Disorders Total, drug-related AE: events: 1
  Skin and Subcutaneous Tissue Disorders Total, drug-related AE: subjects: 1
  Vascular Disorders Total, drug-related AE: % of subjects: (0%) [0]
  Vascular Disorders Total, drug-related AE: events: (0%) [0]
  Vascular Disorders Total, drug-related AE: subjects: 0
Overall
  paraesthesias among the 93 drug-related AEs: % of events: 54%
  paraesthesias among the 93 drug-related AEs: events: 50
Overall N=47
  Abdominal Pain Upper, drug-related AE: % of subjects: 4%
  Abdominal Pain Upper, drug-related AE: events: 2
  Abdominal Pain Upper, drug-related AE: subjects: 2
  Abdominal Pain, drug-related AE: % of subjects: 6%
  Abdominal Pain, drug-related AE: events: 3
  Abdominal Pain, drug-related AE: subjects: 3
  Abdominal Tenderness, drug-related AE: % of subjects: 2%
  Abdominal Tenderness, drug-related AE: events: 1
  Abdominal Tenderness, drug-related AE: subjects: 1
  Acne, drug-related AE: % of subjects: 2%
  Acne, drug-related AE: events: 1
  Acne, drug-related AE: subjects: 1
  All treatment emergent AEs, Mild: % of subjects: 64%
  All treatment emergent AEs, Mild: events: 98
  All treatment emergent AEs, Mild: subjects: 30
  All treatment emergent AEs, Moderate: % of subjects: 4%
  All treatment emergent AEs, Moderate: events: 2
  All treatment emergent AEs, Moderate: subjects: 2
  All treatment emergent AEs, Severe: % of subjects: 2%
  All treatment emergent AEs, Severe: events: 1
  All treatment emergent AEs, Severe: subjects: 1
  All treatment emergent AEs, Total: events: 101
  All treatment emergent AEs, Total: subjects: 31
  Constipation, drug-related AE: % of subjects: 2%
  Constipation, drug-related AE: events: 1
  Constipation, drug-related AE: subjects: 1
  Diarrhoea, drug-related AE: % of subjects: 2%
  Diarrhoea, drug-related AE: events: 1
  Diarrhoea, drug-related AE: subjects: 1
  Discontinued due to adverse events: % of subjects: 2%
  Discontinued due to adverse events: events: 1
  Discontinued due to adverse events: subjects: 1
  Dizziness, drug-related AE: % of subjects: 11%
  Dizziness, drug-related AE: events: 7
  Dizziness, drug-related AE: subjects: 5
  Dysgeusia, drug-related AE: % of subjects: 4%
  Dysgeusia, drug-related AE: events: 3
  Dysgeusia, drug-related AE: subjects: 2
  Fatigue, drug-related AE: % of subjects: 9%
  Fatigue, drug-related AE: events: 4
  Fatigue, drug-related AE: subjects: 4
  Feeling Hot, drug-related AE: % of subjects: 2%
  Feeling Hot, drug-related AE: events: 1
  Feeling Hot, drug-related AE: subjects: 1
  Flushing, drug-related AE: % of subjects: 2%
  Flushing, drug-related AE: events: 1
  Flushing, drug-related AE: subjects: 1
  Gastrointestinal Disorders Total, drug-related AE: % of subjects: 19%
  Gastrointestinal Disorders Total, drug-related AE: events: 12
  Gastrointestinal Disorders Total, drug-related AE: subjects: 9
  General Disorders and Administration Site Conditions Total, drug-related AE: % of subjects: 11%
  General Disorders and Administration Site Conditions Total, drug-related AE: events: 5
  General Disorders and Administration Site Conditions Total, drug-related AE: subjects: 5
  Headache, drug-related AE: % of subjects: 11%
  Headache, drug-related AE: events: 5
  Headache, drug-related AE: subjects: 5
  Hypoaesthesia Facial, drug-related AE: % of subjects: 2%
  Hypoaesthesia Facial, drug-related AE: events: 1
  Hypoaesthesia Facial, drug-related AE: subjects: 1
  Hypoaesthesia Oral, drug-related AE: % of subjects: 11%
  Hypoaesthesia Oral, drug-related AE: events: 6
  Hypoaesthesia Oral, drug-related AE: subjects: 5
  Hypoaesthesia, drug-related AE: % of subjects: 4%
  Hypoaesthesia, drug-related AE: events: 2
  Hypoaesthesia, drug-related AE: subjects: 2
  Nausea, drug-related AE: % of subjects: 9%
  Nausea, drug-related AE: events: 4
  Nausea, drug-related AE: subjects: 4
  Nervous System Disorders Total, drug-related AE: % of subjects: 57%
  Nervous System Disorders Total, drug-related AE: events: 74
  Nervous System Disorders Total, drug-related AE: subjects: 27
  Paraesthesia Oral, drug-related AE: % of subjects: 43%
  Paraesthesia Oral, drug-related AE: events: 30
  Paraesthesia Oral, drug-related AE: subjects: 20
  Paraesthesia, drug-related AE: % of subjects: 26%
  Paraesthesia, drug-related AE: events: 20
  Paraesthesia, drug-related AE: subjects: 12
  Possibly or probably related AEs, Mild: % of subjects: 64%
  Possibly or probably related AEs, Mild: events: 92
  Possibly or probably related AEs, Mild: subjects: 30
  Possibly or probably related AEs, Moderate: % of subjects: 2%
  Possibly or probably related AEs, Moderate: events: 1
  Possibly or probably related AEs, Moderate: subjects: 1
  Possibly or probably related AEs, Severe: % of subjects: (0%) [0]
  Possibly or probably related AEs, Severe: events: (0%) [0]
  Possibly or probably related AEs, Severe: subjects: 0
  Possibly or probably related AEs, Total: % of subjects: 64%
  Possibly or probably related AEs, Total: events: 93
  Possibly or probably related AEs, Total: subjects: 30
  Serious adverse events: % of subjects: (0%) [0]
  Serious adverse events: events: (0%) [0]
  Serious adverse events: subjects: 0
  Skin and Subcutaneous Tissue Disorders Total, drug-related AE: % of subjects: 2%
  Skin and Subcutaneous Tissue Disorders Total, drug-related AE: events: 1
  Skin and Subcutaneous Tissue Disorders Total, drug-related AE: subjects: 1
  Vascular Disorders Total, drug-related AE: % of subjects: 2%
  Vascular Disorders Total, drug-related AE: events: 1
  Vascular Disorders Total, drug-related AE: subjects: 1
Single oral 20 mg, fed and fasted
  safety and tolerability: safe and well tolerated
Whole study
  deaths or SAEs: no deaths or SAEs
